The values that follow come from ChEMBL document CHEMBL1137511, “Identification of a series of novel derivatives as potent HCV inhibitors by a ligand-based virtual screening optimized procedure” (Bioorg Med Chem, 2007).

A short description of this experiment: Inhibition of HCV genotype 1 polymerase. Also on record: species or system Hepacivirus hominis.
Turning to `CC(C)CNn1c(=O)c(C2=NS(=O)(=O)c3ccccc3N2)c(O)c2ccccc21`, the half-inhibitory concentration (IC50) (in general, the concentration needed to halve the response being measured) turned out to be 941 nM.
The result for `COCCOC(=O)NS(=O)(=O)Nc1ccc2c(c1)S(=O)(=O)NC(c1c(O)c3cccnc3n(CCC(C)C)c1=O)=N2` reads 87 nM; that for `CC(C)CCn1c(=O)c(C2=NS(=O)(=O)c3cc(NS(=O)(=O)Nc4ccccc4)ccc3N2)c(O)c2cccnc21`, 41 nM; that for `C#CCOC(=O)NS(=O)(=O)Nc1ccc2c(c1)S(=O)(=O)N=C(c1c(O)c3cccnc3n(CCC(C)C)c1=O)N2`, 72 nM.
The result for `CCOC(=O)c1cccc(NS(=O)(=O)Nc2ccc3c(c2)S(=O)(=O)N=C(c2c(O)c4cccnc4n(CCC(C)C)c2=O)N3)c1` reads 132 nM.
The same measure for `CC(Nn1c(=O)c(C2=NS(=O)(=O)c3ccccc3N2)c(O)c2ccccc21)c1ccccc1` (centres undefined): 16500 nM; for `O=c1c(C2=NS(=O)(=O)c3ccccc3N2)c(O)c2ccccc2n1NCc1cccs1`: 2330 nM; for `O=c1c(C2=NS(=O)(=O)c3ccccc3N2)c(O)c2ccccc2n1NCC1CCC1`: 278 nM.
Consider `CNS(=O)(=O)Nc1ccc2c(c1)S(=O)(=O)NC(c1c(O)c3cccnc3n(CCC(C)C)c1=O)=N2`, for which it took 14 nM to reach half-maximal inhibition (IC50).
The same measure for `O=c1c(C2=NS(=O)(=O)c3ccccc3N2)c(O)c2ccccc2n1NCc1ccccc1`: 5090 nM; for `O=c1c(C2=NS(=O)(=O)c3ccccc3N2)c(O)c2ccccc2n1NCc1nccs1`: 35800 nM.
The result for `CNS(=O)(=O)Nc1ccc2c(c1)S(=O)(=O)N=C(c1c(O)c3cccnc3n(NC3CCC3)c1=O)N2` reads 87000 nM; that for `CNC(=O)c1ccc(NS(=O)(=O)Nc2ccc3c(c2)S(=O)(=O)N=C(c2c(O)c4cccnc4n(CCC(C)C)c2=O)N3)cc1`, 43 nM; that for `O=c1c(C2=NS(=O)(=O)c3cccc(Br)c3N2)c(O)c2cccnc2n1Cc1ccccc1`, 6200 nM.
